From patent US20250387360A1, “Methods and Compositions for Treatment of Addiction” (University of Connecticut, priority 2024, published 2025)

Tested on: male C57BL/6J mice
Experiment: 4-day DID binge-like ethanol drinking with SCFA supplementation in drinking water
Type: in vivo, mouse
Conditions: for alcohol intake with SCFA supplement: 200 mM in drinking water 10 days, n=7 mice/group
Description: Male C57BL/6J mice, (RRID: IMSR_JAX: 000664), aged 6-8 weeks, were obtained from Jackson Laboratories (ME, U.S.A) for the study. The mice were housed individually under a reversed 12-hours light/dark cycle, with lights off from […] to 7:00 am. A minimum acclimation period of 2 weeks was provided for all animals before they were randomly assigned to their respective groups. Mice had free access to food (Irradiated chow, Teklad global 18% protein rodent diet, 2918, Inotiv, WI, U.S.A) and deionized water to acclimate to the testing environment. Body weight and daily food and fluid intake were monitored and noted for all animal experiments.
A standard 4-day drinking in the dark (DID) model was used to evaluate binge-like ethanol drinking patterns in mice. A 20% v/v ethanol solution was prepared by diluting 190-proof ethyl alcohol (Sigma, MO, U.S.A) with deionized water. During days 1-3, the water bottles were temporarily removed during the dark cycle of the mice, and the mice were provided with a tube containing the 20% v/v ethanol solution for a duration of two hours. On day four, the assessment of binge-like ethanol consumption took place, where the mice were given access to the 20% v/v ethanol solution for a period of four hours. The volume of fluid in the tube (read to the closest 100 μL) was measured immediately upon placement, and at two hours and four hours into the test. Following the completion of the four hours test, approximately 100 μL of blood was collected through cardiac puncture after CO2 euthanasia. Blood samples were subjected to centrifugation at 10,000 rpm for 10 minutes. The determination of blood ethanol concentrations (BEC) was performed using an Analox AMI Analyzer (Analox Instruments, MA, U.S.A). The quantity of ethanol consumed was then calculated as grams per kilogram of the mouse's body weight.
All SCFA were used in sodium salt form. Briefly, sodium acetate (Sigma, MO, U.S.A), sodium butyrate (Sigma, MO, U.S.A), sodium valerate (Ambeed, IL, U.S.A), and sodium chloride (NaCl; Sigma, Mo, U.S.A) were prepared at 200 mM concentration freshly in drinking water every two days. These concentrations were chosen based on earlier studies conducted in mice [Qi Y., et al., Sodium acetate regulates milk fat synthesis through the activation of GPR41/GPR43 signaling pathway. Frontiers in nutrition 2023, 10:1098715; Daien C I, et al., Gut-derived acetate promotes B10 cells with anti-inflammatory effects. JCI insight 2021, 6 (7)]. All SCFA and NaCl solutions were pH verified to control for acidity effects on daily consumption. SCFAs were given to mice via oral drinking for 10 consecutive days before any experiment, and this regimen was maintained throughout the entire experiment.
General statistical analysis (non-microbiome and non-RNAseq analysis) were conducted using GraphPad Prism 8 (GraphPad, CA, USA, RRID:SCR_002798). For the calculation of ethanol consumption during the DID procedure, it was expressed as grams of ethanol per kilogram of body weight (g/kg body weight), where 20% ethanol intake was determined as follows: multiplying the drinking volume by the ethanol percentage within that volume and the density of ethanol, and then dividing this by the mouse's body weight in kilograms. Normality of data distributions was tested by Shapiro-Wilk test and by Q-Q plots. Levene's test was used to test equality of variances across groups. Unpaired Student's t-tests were used to compare behavioral testing, GABA levels, and histone acetylation measurements between the sodium valerate and NaCl groups. To evaluate the impact of antibiotic cocktail administration on ethanol consumption and BEC between the groups receiving Abx and PBS at baseline and after treatment, a mixed ANOVA test was employed, given repeated measures from the same mouse from the two time points. Similarly, mixed ANOVA tests were applied to compare various SCFA levels before and after Abx administration.

[1] = supplementation in drinking water, DID

Row | SMILES | alcohol intake with SCFA supplement | BEC (in words) [1] | ethanol consumption (in words) [1]
1 | CC(=O)[O-].[Na+] [sodium acetate, reference compound] | no statistical changes |  | 
2 | CCCC(=O)[O-].[Na+] [sodium butyrate, reference compound] | no statistical changes |  | 
3 | CCCCC(=O)O [valeric acid] |  | significant reduction | significant reduction
